According to PMC9403717, “Ruthenium complexes show potent inhibition of AKR1C1, AKR1C2, and AKR1C3 enzymes and anti-proliferative action against chemoresistant ovarian cancer cell line” (Frontiers in Pharmacology, 2022):
Residue numbers refer to the chain shown, from its start. Like-named read-outs stand apart in the source and are kept apart here.

What was measured:
AKR1C2 [1] = molecular target: T1, AKR1C2 (Homo sapiens, UniProt P52895); design: method as in Bauman et al., 2005; details: ref Bauman et al., 2005; cited from earlier work
T1 construct: made in house
T1 sequence (P52895 1-323): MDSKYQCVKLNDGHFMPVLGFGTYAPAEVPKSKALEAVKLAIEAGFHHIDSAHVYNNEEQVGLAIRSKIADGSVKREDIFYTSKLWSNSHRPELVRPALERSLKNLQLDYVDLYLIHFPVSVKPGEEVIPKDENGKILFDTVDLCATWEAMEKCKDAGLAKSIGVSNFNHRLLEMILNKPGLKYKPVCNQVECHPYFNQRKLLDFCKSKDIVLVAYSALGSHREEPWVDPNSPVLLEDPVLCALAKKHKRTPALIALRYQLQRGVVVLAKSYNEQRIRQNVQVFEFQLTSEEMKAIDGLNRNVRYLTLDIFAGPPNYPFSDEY

COV362 cells [2] = test: Cell migration assay (Ibidi culture inserts), COV362; format: cell-based, human; details: 100 μM, 24 and 48 h
Description: Cell migration assay was performed using Ibidi® three-well culture inserts. The inserts were placed in six-well plates. In total, 70 µL of cell suspension was seeded in the inserts and allowed to adhere and grow for 24 h. When the cells formed a confluent monolayer, the inserts were carefully removed and the cells were washed two times with DPBS. Cells were treated with 100 μM (final concentration) of compounds 8, 9, cisplatin, and carboplatin in 2 ml of growth medium. Cells treated with a medium containing the same volume of sterile water or DMSO were used as the controls. Images of cell gaps were taken with Axio Scope A1 Polarized Light Microscope (Zeiss) at the time of treatment, 24 and 48 h after, and analyzed using ImageJ software.

OVCAR-4 cells = test: Cell proliferation assay (alamarBlue), OVCAR-4; format: cell-based, human; details: OVCAR-4; 48 h incubation
Description: (§1) The cell line COV362 (CVCL_2,420) was originally established from a high-grade ovarian serous adenocarcinoma from a metastatic site in the pleural effusion ([van den Berg-Bakker et al., 1993]) and was purchased from ECACC (ECACC 07071910) as p37 on 13 October 2017. The growth medium for COV362 cells was DMEM (D5546; Sigma–Aldrich GmbH), with 10% FBS (F9665; Sigma–Aldrich GmbH) and 2 mM L-glutamine (G7513; Sigma–Aldrich GmbH). COV362 cells in passages p37 + 12 to p37 + 17 were used in this study and seeded at a concentration of 3.5 cells/ml × 10^4 cells/ml for proliferation studies and at a concentration of 5.3 × 10^5/ml for migration studies. The cell line OVCAR-4 (CVCL_1,627) is a high-grade serous ovarian adenocarcinoma cell line established from a patient refractory to cisplatin ([Johnson et al., 1997]). The cell line was purchased from Merck on 19 March 2021. The growth medium for OVCAR-4 cells was RPMI-1640 (Sigma R5586) supplemented with 2 mM glutamine (G7513; Sigma–Aldrich GmbH), 10% FBS (F9665; Sigma–Aldrich GmbH), 0.25 μg/ml insulin (I9278; Sigma–Aldrich GmbH). OVCAR-4 cells in passages p+6 to p+15 were used in this study and seeded at a concentration of 6 cells/ml × 10^4 cells/ml. The control cell line HIO80 (CVCL_E274) was obtained from Andrew K. Godwin (University of Kansas Medical Center, Kansas, United States) on 20 October 2017 as p+72. It was originally established from ovarian surface epithelium ([Yang et al., 2004]). HIO80 cells were grown in RPMI medium (R5886, Sigma–Aldrich GmbH) supplemented with 10% FBS (F9665; Sigma–Aldrich GmbH), 2 mm L-glutamine (G7513; Sigma–Aldrich GmbH) and 6.6 µg/ml insulin (I9278; Sigma–Aldrich GmbH). HIO80 cells in passages p72 + 8 to p72 + 19 were used in this study and seeded at a concentration of 2 × 10^4 cells/mL. HIO80 in passage +10 was authenticated by short tandem repeats (STR) profiling performed by ATCC on 22 February 2019. Cells were grown in a humidified atmosphere containing 5% CO2 at 37°C. All cell lines were negative for mycoplasma infection which was periodically tested using MycoAlert^TM mycoplasma detection kit (Lonza, Basel, Switzerland).
(§2) The effect of ruthenium compounds on the proliferation of ovarian cancer cell lines COV362 and OVCAR-4 and the control cell line HIO80 was analyzed using the cell proliferation reagent alamarBlue HS (A50101; Thermo Fisher Scientific) following the manufacturer’s instructions.
(§3) Cells were seeded in 96-well plates in 100 µL of medium and allowed to adhere and grow for 24 h. […] Cisplatin and carboplatin purchased from Sigma–Aldrich GmbH (cat. number: PHR1624, lot: LRAB7778) and (cat. number: C2538, lot: MKCK1243) were dissolved in sterile water. Working solutions were prepared by a serial dilution of stock solutions with a culture medium. After the initial incubation, cells were treated with ruthenium complexes, cisplatin, and carboplatin. A range of final concentrations between 0.001 and 300 µM were used for ruthenium complexes and cisplatin, and between 0.001 µM and 1 mM for carboplatin. After 48 h of incubation, plates were incubated with 20 µL of alamarBlue. After 4 h absorbance was measured with a BioTek microplate spectrophotometer at 570 nm, with the reference wavelength set at 600 nm. First, the background value of a well containing the active substance without cells was subtracted, then the average values for duplicates/triplicates were calculated. The absorbance of the well containing only untreated cells was used as a normalization control. The half-maximal […] concentration (IC50) was determined for all ruthenium complexes with a growth-inhibiting effect on cells by constructing a dose-response curve (Graph Pad Prism, Version 8.0).

COV362 cells [3] = test: Cell proliferation assay (alamarBlue), chemoresistant ovarian cancer cell line COV362; format: cell-based, human; details: for IC50: 48 h incubation
Description: as §1, §2, §3

HIO80 cells = test: Cell proliferation assay (alamarBlue), control cell line HIO80; format: cell-based, human; details: 48 h incubation
Description: as §1, §2, §3

AKR1C3 [4] = molecular target: T2, AKR1C3 (Homo sapiens, UniProt P42330); test: Inhibition of recombinant AKR1C3, oxidation of 1-acenaphthenol, progress-curve analysis; format: biochemical; details: AKR1C3
T2 construct: made in house
T2 sequence (P42330 1-323): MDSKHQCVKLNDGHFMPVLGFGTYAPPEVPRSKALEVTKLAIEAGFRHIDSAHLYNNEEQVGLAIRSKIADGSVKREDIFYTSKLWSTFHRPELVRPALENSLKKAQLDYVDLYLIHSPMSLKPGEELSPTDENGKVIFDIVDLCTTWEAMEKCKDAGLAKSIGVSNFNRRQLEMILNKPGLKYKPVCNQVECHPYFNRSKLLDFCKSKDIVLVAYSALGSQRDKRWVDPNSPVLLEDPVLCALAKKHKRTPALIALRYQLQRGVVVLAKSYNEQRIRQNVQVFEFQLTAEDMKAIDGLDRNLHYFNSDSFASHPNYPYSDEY
Description: (§4) To investigate the effect of ten selected ruthenium compounds, we measured their effect on the time course of oxidation of the artificial substrate 1-acenaphtenol by recombinant enzymes AKR1C1–3. The recombinant enzymes AKR1C1–AKR1C3 were prepared as described previously ([Brozic et al., 2006]). Since the artificial substrate is racemic, the oxidation follows a double exponential pattern as described previously ([Traven et al., 2015]). The in vitro catalytic activity of AKR1C1–3 enzymes was determined spectrophotometrically by monitoring the increase in NADH absorbance at 340 nm (ε(λ340) = 6220 M^−1cm^−1) in the presence of the substrate 1-acenaphthenol. Enzymatic reactions (300 µL) were performed in 100 mm potassium phosphate buffer (pH 9.0), 0.005% (v/v) TritonX-114, 5% (v/v) DMSO, containing 2.3 mm NAD^+ and 1-acenaphthenol at final concentrations of 90, 180, and 250 µM for AKR1C1, AKR1C2, and AKR1C3, respectively. A total of 5 µL of a tested compound in DMSO was added to the reaction mixture. The final concentrations of the tested compounds ranged from 1 to 200 μM, depending on the extent of inhibition (Supplementary Data). The reaction was started by adding 15 µL of AKR1C1, AKR1C2, or AKR1C3 dissolved in 1x PBS (pH 7.3) at final concentrations of 0.11, 0.16, and 1.5 µM, respectively. AKR1C1–3 activity was measured at 37°C for 3 h without shaking using a PowerWave XS microplate reader (Biotek; Winooski, VT, United States). Measurements at seven different concentrations were performed in duplicates or triplicates (Supplementary Figures S2). To mechanistically explain all the obtained progress curves for each ruthenium complex on each enzyme by a common reaction scheme, we extended the originally proposed scheme so that the interaction of the ruthenium complex with apo- and holoenzyme was allowed to be rapid and followed by a slow irreversible association of a second ruthenium complex molecule. However, the affinity of the Ru complexes for the apoenzymes was much lower so this part was excluded from the proposed kinetic model for clarity (Figure 4).
(§5) FIGURE 4 Reaction scheme for the oxidation of 1-acenaphtenol by AKR1C1-3 and its inhibition by ruthenium compounds. E represents apoenzyme, E-NAD and E-NADH represent holoenzyme with bound NAD^+ and NADH, respectively. A and B are enantiomers of substrate 1-acenaphtenol. Symbols which include I (ruthenium compound) represent holoenzyme in complex with one or two inhibitor molecules. KNAD, KNADH, and K2-3 are equilibrium constants and k+2–3 are second-order association rate constants for the binding of the second inhibitor molecule to the enzyme. The progress curves for each enzyme in the presence of ruthenium complexes were analyzed by the WEB server ENZO (https://enzo.cmm.ki.si/) designed exactly for such purposes ([Bevc et al., 2011]).

AKR1C2 [5] = molecular target: T1, AKR1C2; test: Inhibition of recombinant AKR1C2, oxidation of 1-acenaphthenol, progress-curve analysis; format: biochemical; details: AKR1C2
Description: as §4, §5

AKR1C1 = molecular target: T3, AKR1C1 (Homo sapiens, UniProt Q04828); test: Inhibition of recombinant AKR1C1, oxidation of 1-acenaphthenol, progress-curve analysis; format: biochemical
T3 construct: made in house
T3 sequence (Q04828 1-323): T1 sequence (P52895 1-323) with V38T, H47R, V54L, S87C, M151V, H170R, L172Q
Description: as §4, §5

AKR1C3 [6] = molecular target: T2, AKR1C3; design: method as in Traven et al., 2015; details: ref Traven et al., 2015; cited from earlier work
AKR1C3 [7] = molecular target: T2, AKR1C3; design: method as in Qiu et al., 2007; details: ref Qiu et al., 2007; cited from earlier work
MCF-7 = details: ref Kljun et al., 2016; cited from earlier work
[8] = irreversible binding of second inhibitor molecule to E-NAD-I
[9] = reversible binding to holoenzyme E-NAD, read-out: K2

In the case of `C[C@H](CCC(=O)O)[C@H]1CC[C@H]2[C@@H]3CC[C@@H]4CC(=O)CC[C@]4(C)[C@H]3CC[C@]12C` [5β-cholanic acid-3-one], the Ki (AKR1C2 [1]) is given as 0.021 µM.

For `N.N.O=C([O-])C1(C(=O)[O-])CCC1.[Pt+2]` [Carboplatin, reference compound], the “effect on cell migration (in words)” value (COV362 cells [2]) was “Significant cell migration was observed”, the IC50 (OVCAR-4 cells) was 73 µM and the IC50 (COV362 cells [3]) was 272 µM. For the same compound, the IC50 (HIO80 cells) was 131 µM.

Work on `N.N.[Cl][Pt][Cl]` [Cisplatin, reference compound] yielded an IC50 (OVCAR-4 cells) of 4.16 µM, an IC50 (COV362 cells [3]) of 13.6 µM and an IC50 (HIO80 cells) of 6.96 µM.

For `Oc1c(I)cc(Cl)c2cccnc12` [Clioquinol, reference compound], the “fold lower IC50 value compared to Ru-pta complex 8” value (COV362 cells [3]) was 1.9 fold and the IC50 (COV362 cells [3]; Homo sapiens) was 20.1 µM.

In the case of `CN(C)c1ccc(C(=O)C=C([O][Ru+][PH]23CN4CN(CN(C4)C2)C3)C(F)(F)F)cc1.Cc1ccc(C(C)C)cc1.F[P-](F)(F)(F)(F)F` [Compound 4, (η^6-p-cymene)(4,4,4-trifluoro-1-(4-(dimethylamino)phenyl)-1,3-butandionato)(pta)ruthenium(II) hexafluorophosphate], the “k+2” value (AKR1C3 [4]; [8]) is reported as 1.8 M⁻¹ s⁻¹, the Ki (AKR1C3 [4]; [9]) is reported as 441 µM and the “k+2” value (AKR1C2 [5]; [8]) is reported as 1.9 M⁻¹ s⁻¹. The Ki (AKR1C2 [5]; [9]) was 340 µM, the “k+2” value (AKR1C1; [8]) was 1.4 M⁻¹ s⁻¹ and the Ki (AKR1C1; [9]) was 86.9 µM.

For `Cc1ccc(C(C)C)cc1.Cc1ccc(C(C)C)cc1.[Cl][Ru][Cl].[Cl][Ru][Cl]` [Compound P1, [(η^6-p-cymene)RuCl(μ-Cl)]2], the “Ki values (in words)” value (AKR1C3 [6]) is listed as “nM Ki values”.

In the case of `CC1(C)CC[C@@]2(CC[C@H]3[C@@H]4CCc5cc(C(N)=O)ccc5[C@H]4CC[C@@]32C)OC1=O` [EM1404], the Ki (AKR1C3 [7]) is listed as 0.0069 µM.

With `O=[N+]([O-])c1ccc(O)c2ncccc12` [Nitroxoline, reference compound] the “fold lower IC50 compared to Ru-chlorido complex 9” value (COV362 cells [3]) was 4 fold and the IC50 (COV362 cells [3]; Homo sapiens) was 6.6 µM.

With `Cc1ccc(C(C)C)cc1.[Cl][Ru]([Cl])[PH]12CN3CN(CN(C3)C1)C2` [RAPTA-C, reference compound] the IC50 (COV362 cells [3]) was over 300 µM.

For `[O-][n+]1ccccc1S` [pyrithione], the “IC50 values (in words)” value (MCF-7) is given as “low µM”.
